Measurements: ChEMBL document CHEMBL1201862, “PubChem BioAssay data set” (2004)
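Protocol summary: plate cells (96-well), add compound at 5 concentrations, incubate 48 h, interpolate endpoints linearly. Abbreviation: GI50, concentration required for 50% inhibition of growth.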 The source made the active and inactive calls. No stated cut-off is given here; in the data, active = GI50 up to about 1.1 µM and inactive = higher.

How the values were obtained:
Test in all cases: NCI anticancer screen, dose series, 48 h
K562 = test system: K562
UACC-257 = test system: UACC-257
NCI/ADR-RES = test system: NCI/ADR-RES
SN12C = test system: SN12C
SK-MEL-5 = test system: SK-MEL-5
786-0 = test system: 786-0
MOLT-4 = test system: MOLT-4
KM12 = test system: KM12
RXF 393 = test system: RXF 393
U-251 = test system: U-251
ACHN = test system: ACHN
HL-60 = test system: HL-60
UACC-62 = test system: UACC-62
DU-145 = test system: DU-145
SNB-75 = test system: SNB-75
NCI-H460 = test system: NCI-H460
SNB-19 = test system: SNB-19
SF-539 = test system: SF-539
HOP-92 = test system: HOP-92
A498 = test system: A498

SMILES | GI50 (K562) | GI50 (UACC-257) | GI50 (NCI/ADR-RES) | GI50 (SN12C) | GI50 (SK-MEL-5) | GI50 (786-0) | GI50 (MOLT-4) | GI50 (KM12) | GI50 (RXF 393) | GI50 (U-251) | GI50 (ACHN) | GI50 (HL-60) | GI50 (UACC-62) | GI50 (DU-145) | GI50 (SNB-75) | GI50 (NCI-H460) | GI50 (SNB-19) | GI50 (SF-539) | GI50 (HOP-92) | GI50 (A498)
S=C1C=C(c2ccccc2)Sc2ccccc2N1 | > 100 µM (inactive) | 48.6 µM (inactive) | > 100 µM (inactive) | > 100 µM (inactive) | 74.6 µM (inactive) | > 100 µM (inactive) | 30.4 µM (inactive) | > 100 µM (inactive) | 8.95 µM (inactive) | > 100 µM (inactive) | > 100 µM (inactive) | 53.8 µM (inactive) | > 100 µM (inactive) | > 100 µM (inactive) | 61.7 µM (inactive) | > 100 µM (inactive) | > 100 µM (inactive) | – | – | –
C/C(=N/O)c1cccc(Nc2nc3ccccc3c3[nH]c4ccccc4c23)c1 | 3.44 µM (inactive) | 6.08 µM (inactive) | 2.99 µM (inactive) | 3.4 µM (inactive) | 1.63 µM (inactive) | 2.3 µM (inactive) | 0.879 µM (active) | 2.58 µM (inactive) | 1.89 µM (inactive) | 3.16 µM (inactive) | 1.59 µM (inactive) | 3.08 µM (inactive) | 2.28 µM (inactive) | 1.74 µM (inactive) | – | 1.64 µM (inactive) | 4.08 µM (inactive) | 5.74 µM (inactive) | 2.51 µM (inactive) | –
COC(=O)C(CCCCNC(=O)CNC(=O)OCc1ccccc1)NC(=O)C(CCCCNC(=O)CNC(=O)OCc1ccccc1)NC(=O)OCc1ccccc1 (centres undefined) | > 100 µM (inactive) | > 100 µM (inactive) | – | > 100 µM (inactive) | 69.5 µM (inactive) | 25 µM (inactive) | 33.4 µM (inactive) | – | – | 54 µM (inactive) | > 100 µM (inactive) | 83.2 µM (inactive) | 40 µM (inactive) | 98.4 µM (inactive) | 62.7 µM (inactive) | > 100 µM (inactive) | 93.3 µM (inactive) | – | – | > 100 µM (inactive)
O=C1CC(C(COCc2ccccc2)OCc2ccccc2)CC(=O)N1 (centres undefined) | > 100 µM (inactive) | > 100 µM (inactive) | – | > 100 µM (inactive) | > 100 µM (inactive) | > 100 µM (inactive) | > 100 µM (inactive) | > 100 µM (inactive) | – | > 100 µM (inactive) | > 100 µM (inactive) | > 100 µM (inactive) | – | > 100 µM (inactive) | – | – | > 100 µM (inactive) | > 100 µM (inactive) | > 100 µM (inactive) | –
COc1ccc2nc3cc([N+](=O)[O-])ccc3c(Nc3ccc(S(=O)(=O)Nc4ncccn4)cc3)c2c1 | 35.4 µM (inactive) | > 71.1 µM (inactive) | > 100 µM (inactive) | > 100 µM (inactive) | 41.6 µM (inactive) | 67 µM (inactive) | > 20.2 µM (inactive) | 31.7 µM (inactive) | > 100 µM (inactive) | > 55 µM (inactive) | 28.8 µM (inactive) | > 100 µM (inactive) | > 65.9 µM (inactive) | > 100 µM (inactive) | 62.2 µM (inactive) | 61.5 µM (inactive) | – | > 100 µM (inactive) | > 44.7 µM (inactive) | –
O=C1NC(=S)NC(=O)C1=Cc1ccc(-c2ccccc2)cc1 | 31.6 µM (inactive) | > 100 µM (inactive) | 27.9 µM (inactive) | > 100 µM (inactive) | > 100 µM (inactive) | > 100 µM (inactive) | 24.7 µM (inactive) | > 100 µM (inactive) | 94.4 µM (inactive) | 54.1 µM (inactive) | > 100 µM (inactive) | – | > 100 µM (inactive) | > 100 µM (inactive) | – | > 100 µM (inactive) | > 100 µM (inactive) | > 100 µM (inactive) | > 100 µM (inactive) | –
